The record followed here is ChEMBL document CHEMBL1201862, “PubChem BioAssay data set” (2004).

Broadly, the EC50 is the midpoint of the concentration-response curve.

Active and inactive are the calls of the source. Rule as the data show it, for most assays here: actives have a measured IC50 and inactives only a lower limit. Some results are limits rather than exact numbers.

Format in all cases: functional
In one experiment the target is T1, Bcl-2-related protein A1 (Mus musculus, UniProt Q07440).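 Also: confirmatory dose–response counterscreen on Bfl-1, used to check hits from a UBC13 polyubiquitin inhibitor campaign.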
T1 sequence (Q07440 whole entry): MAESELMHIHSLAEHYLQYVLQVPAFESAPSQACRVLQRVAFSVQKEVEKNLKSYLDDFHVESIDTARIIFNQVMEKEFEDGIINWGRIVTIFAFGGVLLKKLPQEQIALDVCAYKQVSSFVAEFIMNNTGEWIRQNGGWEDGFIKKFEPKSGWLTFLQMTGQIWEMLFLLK

Experiment [1] concerns the target T2, Ubiquitin-conjugating enzyme E2 N (Homo sapiens, UniProt P61088).
T2 sequence (P61088 whole entry): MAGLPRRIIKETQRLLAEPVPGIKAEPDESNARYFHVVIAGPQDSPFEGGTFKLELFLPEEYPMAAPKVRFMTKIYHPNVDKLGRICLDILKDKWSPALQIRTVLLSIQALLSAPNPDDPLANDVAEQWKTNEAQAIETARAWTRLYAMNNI

For experiment [2], the target named is T3, Alkaline phosphatase, tissue-nonspecific isozyme (Homo sapiens, UniProt P05186).
T3 sequence (P05186 whole entry): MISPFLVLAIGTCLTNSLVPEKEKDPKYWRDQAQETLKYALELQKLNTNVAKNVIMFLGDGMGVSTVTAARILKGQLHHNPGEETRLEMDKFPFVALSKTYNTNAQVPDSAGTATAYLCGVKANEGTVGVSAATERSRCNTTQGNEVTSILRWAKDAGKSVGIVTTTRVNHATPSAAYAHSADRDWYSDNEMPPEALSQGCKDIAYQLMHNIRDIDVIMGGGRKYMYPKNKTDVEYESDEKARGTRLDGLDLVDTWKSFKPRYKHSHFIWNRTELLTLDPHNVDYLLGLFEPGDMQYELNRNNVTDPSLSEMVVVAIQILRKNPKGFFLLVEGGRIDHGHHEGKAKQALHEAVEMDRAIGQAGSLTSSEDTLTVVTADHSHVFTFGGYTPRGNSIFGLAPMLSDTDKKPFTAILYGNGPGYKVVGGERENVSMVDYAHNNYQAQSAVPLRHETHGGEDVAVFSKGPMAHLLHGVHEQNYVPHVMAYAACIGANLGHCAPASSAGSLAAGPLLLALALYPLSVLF
Kind of experiment: TNAP enzyme inhibition by screening hits, dose response, selectivity assay for mouse IAP inhibitor project, biochemical, human TNAP, uHTS hits (AID 488906).

Experiment [3] concerns the target Intestinal-type alkaline phosphatase (Homo sapiens, UniProt P09923). The experiment in a line: inhibition of human intestinal alkaline phosphatase – biochemical, dose response (AID 488876).
Experiment [4] addresses T4, Apoptotic protease-activating factor 1 (Homo sapiens, UniProt O14727).
T4 sequence (O14727 whole entry): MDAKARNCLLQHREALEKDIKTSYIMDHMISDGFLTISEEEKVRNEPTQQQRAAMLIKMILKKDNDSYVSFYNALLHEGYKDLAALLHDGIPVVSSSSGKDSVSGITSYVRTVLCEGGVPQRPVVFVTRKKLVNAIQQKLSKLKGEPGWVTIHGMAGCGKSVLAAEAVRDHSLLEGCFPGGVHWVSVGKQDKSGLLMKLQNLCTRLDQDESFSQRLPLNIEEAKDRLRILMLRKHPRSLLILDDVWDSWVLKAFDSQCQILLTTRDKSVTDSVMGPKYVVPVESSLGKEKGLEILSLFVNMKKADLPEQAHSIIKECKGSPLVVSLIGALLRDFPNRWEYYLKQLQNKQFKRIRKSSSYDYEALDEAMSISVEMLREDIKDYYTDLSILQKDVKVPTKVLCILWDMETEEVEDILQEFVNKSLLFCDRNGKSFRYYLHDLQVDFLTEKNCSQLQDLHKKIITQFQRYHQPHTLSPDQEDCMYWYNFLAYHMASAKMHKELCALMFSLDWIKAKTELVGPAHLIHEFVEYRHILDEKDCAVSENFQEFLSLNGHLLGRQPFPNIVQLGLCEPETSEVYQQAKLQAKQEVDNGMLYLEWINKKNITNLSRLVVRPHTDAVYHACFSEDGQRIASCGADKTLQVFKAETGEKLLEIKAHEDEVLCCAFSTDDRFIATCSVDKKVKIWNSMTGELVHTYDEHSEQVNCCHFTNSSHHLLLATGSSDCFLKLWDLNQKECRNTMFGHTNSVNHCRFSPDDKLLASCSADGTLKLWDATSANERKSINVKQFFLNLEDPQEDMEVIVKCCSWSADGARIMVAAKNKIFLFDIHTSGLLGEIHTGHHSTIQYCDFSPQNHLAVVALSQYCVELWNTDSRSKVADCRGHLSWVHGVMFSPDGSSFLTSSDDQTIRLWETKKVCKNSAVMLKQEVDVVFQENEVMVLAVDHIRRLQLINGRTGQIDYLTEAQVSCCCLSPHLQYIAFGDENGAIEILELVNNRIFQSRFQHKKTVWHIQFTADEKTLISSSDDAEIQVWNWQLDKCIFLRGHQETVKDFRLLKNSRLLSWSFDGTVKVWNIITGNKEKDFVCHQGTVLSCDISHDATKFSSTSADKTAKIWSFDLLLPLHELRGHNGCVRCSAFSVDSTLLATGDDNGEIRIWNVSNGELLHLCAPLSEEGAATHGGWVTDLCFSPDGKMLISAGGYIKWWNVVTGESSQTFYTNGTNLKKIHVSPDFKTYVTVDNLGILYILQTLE

Experiment [5] concerns the target Delta-type opioid receptor (Homo sapiens, UniProt P41143). Kind of experiment: Counterscreen for agonists of heterodimerization of the mu 1 (OPRM1) and delta 1 (OPRD1) opioid receptors: Luminescence-based cell-based high throughput dose response assay to identify agonists of OPRD1 homodimerization. [Related pubchem assays (depositor defined):AID504326, AID504355, AID504692, AID504904, AID504905]. For orientation: Counterscreens check selectivity or assay interference.

Experiment [6] addresses Small ubiquitin-related modifier 1 (Homo sapiens, UniProt P63165). Kind of experiment: SUMO1 protein-protein binding blockers, potency – biochemical, FRET, dose response (AID 624383). Particulars: read-out: IC50_Mean.

Sequence of Small ubiquitin-related modifier 1 (P63165 whole entry): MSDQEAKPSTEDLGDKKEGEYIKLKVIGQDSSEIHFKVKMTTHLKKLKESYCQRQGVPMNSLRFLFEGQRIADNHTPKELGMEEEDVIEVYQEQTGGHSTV
Sequence of Delta-type opioid receptor (P41143 whole entry): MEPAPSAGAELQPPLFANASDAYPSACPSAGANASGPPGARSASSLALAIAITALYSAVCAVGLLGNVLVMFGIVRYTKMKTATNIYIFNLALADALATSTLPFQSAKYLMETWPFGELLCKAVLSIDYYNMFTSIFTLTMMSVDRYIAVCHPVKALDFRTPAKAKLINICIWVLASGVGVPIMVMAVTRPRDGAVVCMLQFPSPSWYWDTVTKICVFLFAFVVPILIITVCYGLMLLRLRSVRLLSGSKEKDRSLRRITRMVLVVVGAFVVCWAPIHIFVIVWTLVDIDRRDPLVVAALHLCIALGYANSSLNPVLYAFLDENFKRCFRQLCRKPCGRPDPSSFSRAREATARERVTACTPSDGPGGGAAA
Sequence of Intestinal-type alkaline phosphatase (P09923 whole entry): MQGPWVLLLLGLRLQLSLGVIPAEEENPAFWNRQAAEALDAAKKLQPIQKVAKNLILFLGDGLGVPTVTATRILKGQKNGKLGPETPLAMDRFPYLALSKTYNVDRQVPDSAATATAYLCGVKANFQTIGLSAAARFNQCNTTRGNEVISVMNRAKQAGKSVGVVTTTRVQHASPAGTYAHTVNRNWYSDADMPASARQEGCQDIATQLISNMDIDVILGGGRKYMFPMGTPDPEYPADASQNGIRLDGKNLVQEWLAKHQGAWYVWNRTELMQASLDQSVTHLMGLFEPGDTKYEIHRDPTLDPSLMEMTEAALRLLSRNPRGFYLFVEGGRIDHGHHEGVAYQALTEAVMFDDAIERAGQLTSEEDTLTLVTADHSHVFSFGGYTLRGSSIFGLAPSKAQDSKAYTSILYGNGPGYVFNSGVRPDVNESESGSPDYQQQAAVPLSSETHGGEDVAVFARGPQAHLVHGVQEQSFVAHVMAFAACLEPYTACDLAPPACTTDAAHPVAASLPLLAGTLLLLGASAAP

On to `Clc1ccc(C(c2ccc(Cl)cc2)n2cc[n+](CC(OCc3ccc(Cl)cc3Cl)c3ccc(Cl)cc3Cl)c2)cc1` (configuration not stated) [CALMIDAZOLIUM CHLORIDE], for which the IC50 at Bcl-2-related protein A1 is 6.23 µM (active); in experiment [1], 5.6 µM (active); in experiment [2], > 100 µM (inactive); in experiment [3], > 100 µM (inactive); in experiment [4], 12.7 µM (active); in experiment [6] it was 5.89 µM (active). Also, in experiment [5], the EC50 is > 92.5 µM (inactive).
